Laboratory results from the OligoGym collection.
Values joined by “and” are separate entries in the source; they are usually repeats but may differ in a detail not shown here. Equal entries are not always repeated. After the bases stand the sugars from the 5' end (letter, count) and the backbone: PS all phosphorothioate, else s phosphorothioate and o phosphodiester by linkage. Methylation of C is not given here. e = 2'-O-(2-methoxyethyl) (MOE); k = constrained ethyl (cEt); d = 2'-deoxy (DNA)

Target: KRAS
Conditions: ASO

Sequence | target mRNA inhibition (A431, 2 µM) | other results
TTAATGTCACAAGCAG (sugars k3 d10 k3, PS) | 52% | 
CATTCAAAGTTCACAT (sugars kkddddddddkekekk, PS) | 96% | target mRNA inhibition (A431, 0.185 µM): 5%; target mRNA inhibition (A431, 0.556 µM): 7%; target mRNA inhibition (A431, 1.667 µM): 9%; target mRNA inhibition (A431, 5 µM): 16%
AAACAAATGCTAATAA (sugars k3 d10 k3, PS) | 9% | 
AAATCTTATGGTTAGG (sugars k3 d10 k3, PS) | 34% | 
GGTTAGGGGAATTACA (sugars k3 d10 k3, PS) | 26% | 
GCTGTGAAACTCTCTA (sugars k3 d10 k3, PS) | 42% | 
GTGTTTATGCAATGTT (sugars kkddddddddddkeke, PS) | 73% | target mRNA inhibition (A431, 0.185 µM): 44%; target mRNA inhibition (A431, 0.556 µM): 71%; target mRNA inhibition (A431, 1.667 µM): 83%; target mRNA inhibition (A431, 5 µM): 92%
CTCTCTATGAAAGCTC (sugars k3 d10 k3, PS) | 29% | 
TAAAAAAAAAATTAAT (sugars k3 d10 k3, PS) | 1% | 
TTACTTTTTGACAAAT (sugars k3 d10 k3, PS) | 0% | 
CCATTTATGTGACTAG (sugars kkddddddddddkeke, PS) | 46% | 
CTTGATTTGTCAGCAG (sugars kdddddddddkekeke, PS) | 44% | target mRNA inhibition (A431, 0.037 µM): 51%
GTGTTTATGCAATGTT (sugars kkkddddddddkekek, PS) | 66% | target mRNA inhibition (A431, 0.185 µM): 33%; target mRNA inhibition (A431, 0.556 µM): 55%; target mRNA inhibition (A431, 1.667 µM): 69%; target mRNA inhibition (A431, 5 µM): 78%
AGTGTGACTCAGTTAA (sugars kkddddddddkekekk, PS) | 47% | 
ATAATAGTTTCCATTG (sugars k3 d10 k3, PS) | 8% | 
ATAATGGTGAATATCT (sugars k3 d10 k3, PS) | 41% | 
TAGTGATTAGGTCAAA (sugars k3 d10 k3, PS) | 21% | 
TCCATTTATGTGACTA (sugars kdddddddddkekeke, PS) | 15% | 

Sequence | target mRNA inhibition (A431, 2 µM) | other results
TTGATTTGTCAGCAGG (sugars kkkddddddddkdkdk, PS) | 19% | 
TTGATTTGTCAGCAGG (sugars k3 d9 k3 e1, PS) | 55% and 30% | 
TCCAGTGATACTTTCA (sugars k3 d9 k3 e1, PS) | 47% | 
TGATTTGTCAGCAGGA (sugars k3 d9 k3 e1, PS) | 63% | target mRNA inhibition (A431, 0.185 µM): 26%; target mRNA inhibition (A431, 0.556 µM): 52%; target mRNA inhibition (A431, 1.667 µM): 70%; target mRNA inhibition (A431, 5 µM): 80%
TTGATTTGTCAGCAGG (sugars k3 d10 k3, PS) | 65% and 66% and 74% | target mRNA inhibition (A431, 0.185 µM): 41%; target mRNA inhibition (A431, 0.556 µM): 60%; target mRNA inhibition (A431, 1.667 µM): 77%; target mRNA inhibition (A431, 5 µM): 87%
TTGTTTAAAAAAAAAA (sugars k3 d10 k3, PS) | 0% | 
ACTTATGCAGAGAAAA (sugars k3 d10 k3, PS) | 37% | 
AAAGTTCACATAAAGG (sugars k3 d10 k3, PS) | 38% | 
ACCATTCAAAGTTCAC (sugars kkddddddddddkeke, PS) | 41% | 
ACCATTCAAAGTTCAC (sugars kkddddddddkekekk, PS) | 7% | 
AAACGAGAATGGATAT (sugars k3 d10 k3, PS) | 12% | 
CTTGATTTGTCAGCAG (sugars kddddddddddkekek, PS) | 45% | target mRNA inhibition (A431, 0.037 µM): 62%
GTTTATGCAATGTTAA (sugars k3 d10 k3, PS) | 55% | 
AAAGCTATTAGGAGTC (sugars k3 d10 k3, PS) | 65% | 
TCCATTTATGTGACTA (sugars kkddddddddkekekk, PS) | 29% | 
TGTACTAGTATGCCTT (sugars k3 d10 k3, PS) | 66% | target mRNA inhibition (A431, 0.185 µM): 18% and 9%; target mRNA inhibition (A431, 1.667 µM): 61% and 43%; target mRNA inhibition (A431, 5 µM): 74% and 64%
GCTATAATAATCCCCA (sugars k3 d10 k3, PS) | 56% | target mRNA inhibition (A431, 0.185 µM): 1%; target mRNA inhibition (A431, 0.556 µM): 24%; target mRNA inhibition (A431, 1.667 µM): 55%; target mRNA inhibition (A431, 5 µM): 68%
TGGTGTAACATAGGTT (sugars k3 d10 k3, PS) | 58% | target mRNA inhibition (A431, 0.185 µM): 0%; target mRNA inhibition (A431, 0.556 µM): 35%; target mRNA inhibition (A431, 1.667 µM): 61%; target mRNA inhibition (A431, 5 µM): 78%
